# Laboratory results published in PubChem BioAssay AID504461 (NMMLSC, 2011).
# Calls of active or inactive are those of the source.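 Rule for the calls: active = compounds whose fitted half-effect concentration on CIT2 GFP level is 33 micromolar or lower; inactive = the rest.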
# Test system: not listed separately
# Assay: yeast TOR pathway CIT2-GFP reporter analogs – flow cytometry, KU set 2, dose response, SAR follow-up (AID 504461)
# Conditions: S. cerevisiae CIT2-GFP strain, flow cytometry GFP, 3 h; at 100 µM (top of the series)
row,SMILES,GFP fluorescence (kMESF)
1,CNc1nc(N)c([N+](=O)[O-])c(Nc2ccccc2Br)n1,3.6 kMESF (inactive)
2,CNc1nc(N)c([N+](=O)[O-])c(Nc2cccc(OC)c2)n1,5.3 kMESF (inactive)
3,CCNc1nc(NC2CCCCC2)c([N+](=O)[O-])c(N2CCOCC2)n1,3.39 kMESF (inactive)
4,CNc1nc(NC2CCCCC2)c([N+](=O)[O-])c(N2CCOCC2)n1,3.39 kMESF (inactive)
5,CNc1nc(NC)c([N+](=O)[O-])c(Nc2cccc(Cl)c2)n1,3.32 kMESF (inactive)
6,CNc1nc(N)c([N+](=O)[O-])c(Nc2ccccc2F)n1,4.24 kMESF (inactive)
7,CNc1nc(N)c([N+](=O)[O-])c(Nc2cccc(Oc3ccccc3)c2)n1,3.53 kMESF (inactive)
8,CNc1nc(N)c([N+](=O)[O-])c(Nc2cccc(Br)c2)n1,5.3 kMESF (inactive)

# Same assay, conditions: S. cerevisiae CIT2-GFP strain, flow cytometry GFP, 3 h; at 300 µM (top of the series)
row,SMILES,GFP fluorescence (kMESF)
1,O=[N+]([O-])c1c(NC2CCCCC2)nc(NCc2ccccc2)nc1N1CCOCC1,4.5 kMESF (inactive)
2,Cc1cc(Nc2cc(-c3ccccc3)nc(NCc3ccccc3)n2)n[nH]1,4.23 kMESF (inactive)
3,COc1cccc(-c2cc(Nc3cc(C)[nH]n3)nc(NCc3ccccc3)n2)c1,4.64 kMESF (inactive)
4,CCOC(=O)c1c(N)nc(NC)nc1Nc1cccc(F)c1,5.12 kMESF (inactive)
5,CNc1nc(N)cc(Oc2cccc(Cl)c2)n1,3.55 kMESF (inactive)
6,CNc1nc(N)cc(Nc2cccc(Cl)c2)n1,4.78 kMESF (inactive)
7,COc1ccccc1-c1cc(Nc2cc(C)[nH]n2)nc(NCc2ccccc2)n1,4.5 kMESF (inactive)
8,COC(=O)c1cccc(-c2cc(Nc3cc(C)[nH]n3)nc(NCc3ccccc3)n2)c1,4.85 kMESF (inactive)
9,Cc1cc(Nc2cc(Nc3ccccc3)nc(NCc3ccccc3)n2)n[nH]1,4.57 kMESF (inactive)
10,CNc1nc(N)cc(Nc2ccccc2F)n1,5.53 kMESF (inactive)

# Test system: S. cerevisiae CIT2-GFP strain, flow cytometry GFP, 3 h
# Assay: as above
# Conditions: not given
row,SMILES,EC50
1,CNc1nc(N)c(C(=O)c2ccc(C)c(C)c2)c(Nc2cccc(Cl)c2)n1,129 µM (inactive)
2,CCNc1nc(N)c([N+](=O)[O-])c(Nc2cccc(Cl)c2)n1,73.5 µM (inactive)
